From US20150238466A1, “LIM KINASE INHIBITORS” (RAMOT AT TEL-AVIV UNIVERSITY LTD., priority 2012, published 2015) come the findings set out here.

Data set [1] has as its system LIMK. The experiment in a line: Western blot of p-cofilin in NF1−/− MEFs. It counts as cell-based, mouse. As to the method: FIG. 3A-B presents an immunoblot and graphical presentation of immunoblots. […] Normalization was performed using beta-tubulin. Average inhibition was calculated as a percentage of control (mean±SD, n=3,*P<0.05; **P<0.01 compared to control (Student's t-test)).
NF1−/− MEFs were plated at a density of lx 10^5 or 5×10^5 cells in 6-well plates or 10-cm dishes, respectively, and were allowed to grow overnight in a medium containing 10% FCS. […] The cells were then lysed with solubilization buffer (50 mMTris-HCl at a pH of 7.6, 20 mM MgCl2, 200 mM NaCl, 0.5% NP40, 1 mM Dithiothreitol, and protease inhibitors), and the lysate (50 μg) was subjected to SDS-PAGE and then immunoblotted with one of the following antibodies: anti-p-cofilin (1:1000), anti-cofilin (1:1000), anti-β-tubulin (1:500). The immunoblots were then exposed to peroxidase-goat anti-rabbit IgG (1:2500), and protein bands were visualized by enhanced chemiluminescence and quantified by densitometry (EZ-Qant). Rabbit anti-cofilin and p-cofilin (Ser3) were from Cell Signaling Technolgy (Beverly, Mass.); mouse anti-β-tubulin antibody was from Sigma-Aldrich; peroxidase-goat anti-mouse IgG and peroxidase-goat anti-rabbit IgG were from Jackson ImmunoResearch Laboratories (West Grove, Pa.).
It has been previously shown that the levels of phosphorylated cofilin (p-cofilin) are high in NF1^−/− Mouse Embryonic Fibroblasts (MEFs). Thus, these cells were used herein to examine the impact of compound 1 on phosphorylation of cofilin.
The cells were lysed and subjected to immunoblotting with anti-p-cofilin, anti-cofilin, and anti-β-tubulin (as loading control) antibodies. […] These findings, taken together, support the predicted LIMK model as well as the predicted LIMK inhibitor.

Data set [2] has as its system NF1−/− MEFs. As to the kind of experiment: Anchorage-independent growth in soft agar. It counts as cell-based, mouse. Conditions: 25 and 50 μM, 14 days. As to the method:
FIG. 7B is a graph showing a statistical analysis of the anchorage-independent growth experiment. Columns, mean (n=5); bars, SD; *P<0.001.
Noble agar 2% (Difco, Detroit, Mich.) was mixed with DMEM×2 medium, containing 10% FCS, 4 mM L-glutamine, 200 units/mL penicillin, and 0.2 mg/mL streptomycin. The mixture (50 μL) was poured into 96-well plates to provide the agar base at a final agar concentration of 1%. […] The cells were incubated for 14 days and then stained for 4 hours with 1 mg/mL 344,5-dimethylthiazol-2-yl)-2 5-diphenyltetrazolium bromide (MTT; Sigma-Aldrich, St. Louis, Mo.), which stains active mitochondria in living cells, and the colonies were imaged. Colonies larger than 0.16 mm^2 (mean±SD, n=5) were counted using Image-Pro Plus software (Media Cybernetics, Carlsbad, Calif.). The average percentage of colonies in each group (means±SD, n=5) was calculated by dividing the number of colonies of a particular treatment and specific group size by the number of colonies of the same size in the corresponding untreated control group.

For data set [3], the system named is NF1−/− MEFs. The experiment in a line: Growth (cell number) of NF1−/− MEFs, direct counting after 5 days. In kind it is cell-based, mouse. The note with it: for inhibition at 5 µM / inhibition at 25 µM: Mus musculus. The protocol: Cells were directly counted and typical inhibition curves are shown (means±SEM, n=9; **P<0.01, ***P<0.001).
The cells were plated in 24-well plates at a density of 5×10^3 cells per well.

The test system of data set [4] is ST-88-swanoma. As to the kind of experiment: Growth inhibition of ST-88 cells. In kind it is cell-based. The note with it: 120 h; ST-88, 5 days; read-out: IC50, reduction of cell number. The source says: (§1) Cells were directly counted and typical inhibition curves are shown.
The test system of data set [5] is NF1−/− MEFs. As to the kind of experiment: Actin stress fibers, rhodamine-phalloidin staining of NF1−/− MEFs. In kind it is cell-based, mouse. The protocol:
MEFs were seeded on glass coverslips in 6-well plates at the densities of 2.5×10^4 cells per well. […] Cells were further incubated for 24 hours and were then fixed, permeabilized, and washed. Rhodamine-labeled phalloidin was added for 30 minutes and the slides were then washed, mounted, and imaged. F-actin was visualized and then photographed under an LSM510 confocal microscope (×63 objective) fitted with rhodamine filters. Statistical analysis was performed by counting 100 cells from each slide, with or without stress fibers, under an Olympus fluorescence microscope.

Data set [6] concerns U87-glioblastoma. The experiment in a line: Growth inhibition of U87 cells. Conditions: Homo sapiens, U-87 MG, 120 h; U87, 5 days; read-out: IC50, reduction of cell number. It counts as cell-based.
Excerpt: as §1

For data set [7], the system named is wt MEFs. The experiment in a line: Scratch-induced (wound-healing) migration assay, wt MEFs. In kind it is cell-based, mouse. The note with it: compound 1 at 50 μM. As to the method: (§2) FIG. 6 is a graph showing gap width in NF1−/− MEFs cells examined (mean±SD, n=9), expressed as a percentage of the gap at the time of scratching.
(§3) Scratch-induced migration assay was performed as described in Goldberg et al.. Briefly, NF1-knockout and wt MEFs were seeded on collagen-covered 35-mm plates at a cell density of 1.5×10^5 per plate. […] Three areas were scratched in each plate, creating three gaps of similar widths. The media and the inhibitors were then replenished. Immediately thereafter, and at the time points indicated in the Examples section, phase-contrast images of the plates were obtained with a CCD camera connected to an Olympus fluorescence microscope (×10 objective). The region imaged was marked at time “zero” in order to enable photographing the same area at the different time points, and so that a specific population of migrating cells may be examined. The widths of the gaps treated with the inhibitor were measured at different time points, using the Image-Pro Plus software. […] Statistical analysis of the results was performed, of either the mean gap width (in arbitrary units) of compound 1-treated cells relative to the control at different time points (means±SD, n=9) or the percentage of migration, calculated as the width of the gap still open at the final time point, expressed as a percentage of the gap size at zero time for each treatment (means±SD, n=9). […]

Data set [8] concerns Panc-1-pancreatic cancer tumor cell line. The experiment in a line: Growth inhibition of Panc-1 cells. In kind it is cell-based. Conditions: Homo sapiens, 120 h; Panc-1, 5 days; read-out: IC50, reduction of cell number.
Excerpt: as §1

For data set [9], the system named is NF1−/− MEFs. The experiment in a line: Scratch-induced (wound-healing) migration assay, NF1−/− MEFs. In kind it is cell-based, mouse. The note with it: within 3 hours, compound 1 at 50 μM; untreated cells 50%. The protocol: as §2, §3
Data set [10] is described as follows: In-vivo toxicity, single oral dose in nude mice. Conditions: single oral dose 20-100 mg/kg in 0.5% CMC, followed for 2 weeks. An excerpt: The mice were weighted and followed for 14 days after the administration. Average weight of treated mice is presented. (n=2).
The mice were followed for 2 weeks to measure toxic effects.

Data set [11] has as its system Panc-1 tumor. The experiment in a line: Panc-1 human pancreatic tumor growth in nude mice. It counts as in vivo, mouse. Conditions: for average tumor size: control group 745. The source says: FIG. 11A—Panc-1 cells were implanted s.c. in the right flank of athymic nude mice. After 7 days, the mice were separated randomly into one vehicle-treated control group and two T-56-LIMKi groups (n=8). […] Tumor volumes (means±S.E.M, * p-value<0.05) during the experiment period are shown. FIG. 11B—The mice were weighted at indicated time point. Presented are average weights of each group (grams±stdev).
Nude CD1-Nu mice (6 weeks old) were housed in barrier facilities on a 12-h light/dark cycle. Food and water were supplied ad libitum. On day zero, 5×10^6 Panc-1 cells in 0.1 ml of PBS were implanted s.c. just above the right femoral joint When tumor volumes reached values of 0.06-0.07 cm3 (day 0 of compound-1 treatment), the mice were randomly separated into three groups. Control mice received vehicle; compound-1-treated mice received 30 or 60 mg/kg T56-LIMKi (oral administration of 0.1 ml with 0.5% CMC daily). Tumor volume was calculated as (length×width)×[(length+width)÷2].
The effects of compound ion human pancreatic tumor growth in nude mice was examined, i.e., on cell transformation in an in vivo model. Mice received 5×10^6 cells subcutaneously (s.c.) in the right flank. […] By day 31, 4 out of 8 tumors in the 60 mg/kg treated group disappeared completely.

Values joined by “and” are separate entries in the source; they are usually repeats but may differ in a detail not shown here. Equal entries are not always repeated.

Take `CC(C)C(=O)Nc1ncc(-c2cc(C(F)F)nn2-c2c(Cl)cccc2Cl)s1` [BMS-5, N-{5-(2-(2,6-dichloro-phenyl)-5-difluoromethyl-2H-pyrazol-3-yl)-thiazol-2-yl}-isobutyramide, reference compound]: the “reduction of p-cofilin level, potency compared with compound 1” value in data set [1] (similar experiment, 2 hours, NF1−/− MEFs) is “more potent than compound 1”.

For `Cc1cc(C(=O)Nc2cccc(C(=O)Nc3cccc(C(F)(F)F)c3)c2)on1` [compound 1], the “colony formation in soft agar” value in [2] is listed as “inhibited in a dose-dependent manner”. Moreover, the inhibition at 5 µM stood at 13% in data set [3] (compound 1 at 5 μM in the absence of FTS) and 60% in [3] (compound 1 at 5 μM in the presence of FTS). In addition, the inhibition at 25 µM turned out to be 51% in data set [3] (compound 1 at 25 μM in the absence of FTS) and 85.5% in data set [3] (compound 1 at 25 μM in the presence of FTS). For the same molecule, in data set [3] (compound 1 at 50 μM), the “reduction in cell proliferation” value came to 70%. In addition, the IC50 in data set [4], in [6] and in [8] was about 25 µM throughout. Further, the “inhibition of cofilin phosphorylation by LIMK” value in data set [1] (50 μM) was “about 50%”. Moreover, the “amounts of total cofilin” value in [1] (2 hours, NF1−/− MEFs) is “did not affect”. Also, the level of p-cofilin entry in data set [1] (compound 1 at 10-50 μM, 2 hours, serum-starved NF1−/− MEFs) is reported as “reduced”. For the same molecule, the “decrease in the number of cells exhibiting stress fibers” value in data set [5] (compound 1 at 50 μM) was 26%±7.7% and 30%. In data set [7], the “mobility of wt MEFs” value is “not affected”. This molecule also came in with a gap closed in data set [9] of 10%. Further, the body weight result in data set [10] is “no weight lost was detected”. The results for the “toxic effects (appearance of mice)” value in data set [10] and in [10] (listed as T56-LIMKi) were “looked normal at all doses” and “not toxic”, respectively. The “significance of the reduction of tumor volume” value in data set [11] (60 mg/kg daily oral) is reported as “significant from day 18”. Further, the mouse weight result in [11] (30 or 60 mg/kg daily oral) is “not affected”. Further, in data set [11] (30 or 60 mg/kg daily oral), the signs of cytotoxicity entry is listed as “no signs of cytotoxicity”. The average tumor size in [11] (Day 22, 30 mg/kg daily oral) is reported as 488 mm^3; in data set [11] (Day 22, 60 mg/kg daily oral) it was 268 mm^3. In addition, in [11] (by day 31, 60 mg/kg daily oral), the “tumors that disappeared completely” value is recorded as 4 out of 8.

As to `CC(C)=CCC/C(C)=C/CC/C(C)=C/CSc1ccccc1C(=O)O` [FTS, S-trans, trans-farnesyl thiosalicyclic acid, reference compound], the growth inhibition in [3] (FTS alone (zero compound 1)) is recorded as 33%±1.6%. In addition, in data set [5] (FTS alone), the “decrease in stress fiber formation” value is reported as 20%±5.6%.

Broadly, the inhibition is the share of the control response that was lost under treatment. What is called IC50 is the concentration at which inhibition is half-maximal.
